# Patent US20090246281A1, “Soft steroid compositions for use in dry powder inhalers” (Norton Healthcare Ltd., priority 2003, published 2009)
# Test: Stability of EDA dry mix versus EDA solutions in solvents
# Format: physicochemical
# Source text: In comparison, solutions prepared by dissolving 2 wt % EDA in a) pure methanol, b) pure ethanol, c) methanol+10 wt % water (pH 4.5) and d) ethanol+10% water (pH 4.5), were stable for 2 days, 2 days, 4 days and 4 days, respectively.
compound,measurement,setting,value
"CCOC(=O)[C@@]1(OC(=O)C(Cl)Cl)CCC2C3CCC4=CC(=O)C=CC4(C)C3C(O)CC21C (stereo partly drawn) [EDA, ethyl 17α-dichloroacetoxy-11β-hydroxyandrosta-1,4-dien-3-one-17β-carboxylate]",Time stable in solution,2 wt % EDA in ethanol+10% water (pH 4.5),4 days
same,Time stable in solution,2 wt % EDA in methanol+10 wt % water (pH 4.5),4 days
same,Time stable in solution,2 wt % EDA in pure ethanol,2 days
same,Time stable in solution,2 wt % EDA in pure methanol,2 days
